“Also recorded” adds a separate entry of the source.
Assays:
[1] = tested on: CD8+ T cells; assay: HLA-A11 tetramer CyTOF screen of gastric cancer patient PBMCs; assay type: cell-based, human; details: for CD8+ T-cells capable of recognizing the peptide antigen (HLA-A11 tetramer staining): PBMCs of 7 gastric cancer patients, validation cohort, CyTOF
Text: In one specific example, as shown schematically in FIG. 7, the method 150 may include HLA tetramer staining of peripheral blood, including preparing HLA tetramers by bacterially expressing and purifying biotin tagged HLA loaded with a UV cleavable peptide. Individual shared candidate antigens are then loaded onto the HLA molecule by UV mediated peptide exchange. Addition of heavy metal barcoded streptavidin causes formation of a tetramer comprising a shared candidate antigen. Peripheral blood (e.g. PBMC) from one or more cohort of patients having the medical condition is stained with a pool of the HLA tetramer and analysis is then done using CyTOF.
(§1) To determine if GC patients have CD8+ T cells that target any of the 77 peptides that were identified in Example 2, a CyTOF screen was conducted on a new cohort of GC patients (the Validation cohort) using MHC tetramer staining of peripheral blood. The CyTOF screen was performed as described in Leong and Newell (2015). Chemically synthesized peptides were supplied by Mimotopes and were stored as dry powder at −20° C. These peptides were loaded onto biotinylated HLA-A11 by UV-mediated exchange. Streptavidin labelled with three heavy metal barcodes was bound to the peptide loaded HLA-A11 to make the HLA-tetramers used for staining peripheral blood (FIG. 7). HLA-A11 tetramer staining of 7 gastric cancer patients derived PBMCs was performed (FIG. 12(a)) and control peptides against the Epstein-Bar Virus (EBV) viral antigen were incorporated as positive control (FIG. 13). […] This antigen was generated from an alternative splicing event of the MARK3 gene identified in Example 2 (FIG. 11(b)). The sequence of the MARK3 splice variant antigen used in the CyTOF studies was RNMSFRIK (SEQ ID NO: 1) and the EBV peptide sequence was […] (SEQ ID NO: 2). […] Patient SC020 was also positive for T Cells that reacted with the positive control peptide from the EBV (FIG. 13). The presence of the MARK3 splice variant antigen in a fresh PBMC isolate from gastric cancer patient, SC020, was further confirmed by a FACS analysis using fluorescently labelled MARK3-A11-RNMSFRIK peptide tetramers (FIG. 12(b)).

[2] = tested on: CD8+ T cells; assay: HLA-A11 tetramer CyTOF screen of CRC patient PBMC; assay type: cell-based, human; details: 8 HLA-A11 positive CRC patients; for antigen specific CD8+ T cells detected in CRC patients: validation cohort
Protocol: To determine if CRC patients have CD8+ T cells that target any of the 102 peptides that were identified in Example 12, a CyTOF screen was conducted on a new cohort of 8 CRC patients (validation cohort) using MHC tetramer staining of PBMC (FIG. 19(a)). These CRC patients are all positive for HLA-A11.
The 102 peptides were chemically synthesized by Mimotopes. These peptides were loaded onto biotinylated HLA-A11 by UV-mediated exchange. Streptavidin, labelled with three heavy metal barcodes, was bound to the peptide-loaded HLA-A11 to make the HLA-tetramers used for staining PBMCs.
To increase the sensitivity of detecting antigen-specific T cells, two different sets of heavy metal barcodes were used for each peptide. PBMCs from each patient were stained with these two sets of peptide-loaded HLA tetramers. Frequency co-concordance was used as an indication of specific staining for rare events.

[3] = tested on: CD8+ T cells; assay: HLA-A24 tetramer CyTOF screen of CRC patient PBMC; assay type: cell-based, human; details: 10 HLA-A24 positive CRC patients, validation cohort
Protocol: To determine whether CRC patients have CD8+ T cells that target any of the 75 SVPs that bind to HLA-A24, a CyTOF screen was conducted on a new cohort of 10 HLA-A24 positive CRC patients (validation cohort) using MHC tetramer staining of PBMC (procedure for performing this screen is similar to that described in Example 13). In total, antigen-specific CD8+ T cells that target eight splice variant peptides were identified from this screen.

[4] = tested on: CD8+ T cells; assay: moDC/CD8+ T-cell co-culture of healthy donors, tetramer FACS (immunogenicity); assay type: cell-based, human; details: HLA-A11 positive healthy donors, SVP 2.5 μM loaded moDC, 10 days co-culture, PE/APC tetramers
Text: Antigen specific T-cells for LRR1, GRINA, and ZNF670 were initially identified in the SVP/HLA-A11 tetramer CyTOF screen (as described in Example 13). The immunogenicity of these targets was further assessed by testing whether antigen specific T-cells could be expanded in the PBMC of healthy donors who were HLA-A11 positive. PBMC were obtained from healthy donors and an aliquot was used to isolate monocytes (CD14 positive selection kit, STEMCELL Technologies) for subsequent differentiation to dendritic cells. Briefly, differentiation of monocytes to dendritic cells was carried out by culturing the isolated CD14 cells with IL4 (10 ng/ml) and GM-CSF (800 IU/ml) for 3 days and maturating the dendritic cells with IL4 (10 ng/ml), GM-CSF (800 IU/ml), LPS (10 ng/ml), IFN-γ (100 IU/ml), and the LRR1, GRINA and ZNF670 HLA-A11 SVP (2.5 μM) overnight. These monocyte derived dendritic cells were then cultured with CD8+ T cells which were isolated from another aliquot of PBMCs from the same donor using EasySep CD8 T cell isolation kit, STEMCELL Technologies. After 10 days of co-culture, expansion of antigen-specific T cells was detected by staining with tetramers (labelled with PE and APC) that have been loaded with the LRR1, GRINA and ZNF670 HLA-A11 SVP. […] Antigen-specific T-cells for these SVPs are not observed in CD8+ T cells in unstimulated PBMCs from healthy donors, whereas SVP-specific T-cells can be observed when they have been co-cultured with monocyte-derived dendritic cells that have been loaded with the SVP. In summary, antigen-specific CD8 T cells for LRR1, GRINA and ZNF670 were able to be generated in healthy donors, showing that these SVPs are immunogenic.

[5] = tested on: CD8 T cells; assay: FACS analysis with fluorescently labelled A11 MHC tetramers; assay type: cell-based, human; details: fresh PBMC isolate from gastric cancer patient SC020
Protocol: as §1, with “The presence of the MARK3 splice variant antigen in a fresh PBMC isolate from gastric cancer patient, SC020, was further confirmed by a FACS analysis using fluorescently labelled MARK3-A11-RNMSFRIK peptide tetramers (FIG. 12(b)).” left out

[6] = tested on: CTLs; assay: ELISPOT assay for IFN-γ in PBMCs from healthy donors; assay type: cell-based, human; details: PBMCs from healthy donors with or without stimulation with peptide
Protocol: T cells having a shared splice variant antigen, such as MARK3, can be expanded ex-vivo. In the case of MARK3, PBMC were obtained from healthy donors. An aliquot of these PBMCs was used to isolate monocytes (Human Monocyte Isolation Kit, STEMCELL Technologies) for subsequent differentiation to dendritic cells (ImmunoCult Dendritic Cell Culture kit, STEMCELL Technologies). These monocyte derived dendritic cells were treated with mitomycin C (30 μg/ml) to prevent outgrowth of these cells. These dendritic cells were then loaded with MARK3 peptide and used as antigen-presenting cells. CD8+ T cells were isolated (EasySep Human CD8+ T cell isolation kit, STEMCELL Technologies) from another aliquot of PBMCs and these cells were co-cultured with the antigen-presenting cells to stimulate the expansion of MARK3 specific T cells. To generate sufficient number of MARK3-specific T cells for functional characterisation or TCR identification, MARK3 peptide loaded monocyte derived dendritic cells or artificial antigen presenting cells may be used to further stimulate expansion of MARK3 specific T cells. Expansion of MARK3 specific T cells using the above method can be used for the treatment of patients.
Characterization of the MARK3 antigen and CD8+T lymphocytes was carried out by first determining whether MARK3 specific CTLs could be expanded in healthy donor PBMCs (as shown in Example 6). […]

[7] = target: T1, MARK3 splice variant (inclusion of exon 24; MARK3 isoforms 1 and 3) peptide on HLA-A*11 (human); assay: multimer staining
T1 peptide: RNMSFRFIK

[8] = listed as MARK3 splice variant antigen

SSCSSCPLSK (EBV peptide sequence) [control peptide against the Epstein-Bar Virus (EBV) viral antigen, positive control, reference compound]
CD8+ T-cells capable of recognizing the peptide antigen (HLA-A11 tetramer staining) [1]: positive

SQLDFVKTRK (PARD3 splice variant antigen)
antigen specific CD8+ T cells detected in CRC patients [2]: could be identified in one or more CRC patients

LTMAVKAEK (ZC3HAV splice variant antigen) [ZC3HAV1]
antigen specific CD8+ T cells detected in CRC patients [2]: could be identified in one or more CRC patients

SYHSIPSLPRF (LRR1 splice variant antigen)
antigen specific CD8+ T cells detected in CRC patients [3]: detected in CRC patients
antigen specific CD8+ T cells detected in CRC patients ([3]; listed as SEQ ID NO: 51): detected

VTSPSRRSK (CAMKK1 splice variant antigen)
antigen specific CD8+ T cells detected in CRC patients [2]: could be identified in one or more CRC patients

SLPRFGYRK (LRR1 splice variant antigen)
expansion of antigen-specific CD8+ T cells (immunogenicity) [4]: observed only after stimulation; also recorded: immunogenic
antigen specific CD8+ T cells detected in CRC patients [2]: could be identified in one or more CRC patients
antigen specific CD8+ T cells detected in CRC patients ([2]; listed as SEQ ID NO: 36): detected
antigen specific CD8+ T cells detected in CRC patients ([2]; listed as SLPRFGYRK): detected in CRC patients

SCVSPSSELK (ZNF670 splice variant antigen)
expansion of antigen-specific CD8+ T cells (immunogenicity) [4]: observed only after stimulation; also recorded: immunogenic
number of CRC patients in which detected [2]: two
antigen specific CD8+ T cells detected in CRC patients [2]: could be identified in one or more CRC patients

SIRQAFIRK (GRINA splice variant antigen)
expansion of antigen-specific CD8+ T cells (immunogenicity) [4]: observed only after stimulation; also recorded: immunogenic
antigen specific CD8+ T cells detected in CRC patients [2]: could be identified in one or more CRC patients

SSFYALEEK (NBPF9 splice variant antigen)
number of CRC patients in which detected [2]: two
antigen specific CD8+ T cells detected in CRC patients [2]: could be identified in one or more CRC patients

VIVSASRTK (YAF2 splice variant antigen)
antigen specific CD8+ T cells detected in CRC patients [2]: could be identified in one or more CRC patients

KWPPATETL (MZF1 spliced variant antigen)
antigen specific CD8+ T cells detected in CRC patients [3]: detected

RNMSFRFIK (MARK3 splice variant) [MARK3 peptide]
presence of antigen-specific CD8 T cells confirmed by FACS [5]: confirmed
positive hit out of 7 samples ([1]; CyTOF screen, 7 GC patients): 14%
CD8+ T-cells capable of recognizing the peptide antigen (HLA-A11 tetramer staining) [1]: one out of 7
CD8+ T-cells capable of recognizing the peptide antigen (HLA-A11 tetramer staining) [1, 8]: one of the patients, SC020, was found to be positive
CD8+ T-cells capable of recognizing the peptide antigen (HLA-A11 tetramer staining) ([1]; listed as MARK3 splice variant peptide): has CTLs that react
IFN-γ secreting CTLs [6]: IFN-γ secreting CTLs are only observed when PBMCs were stimulated with MARK3 peptide
IFN-γ secreting CTLs [6, 8]: antigenic

B1: MARK3-specific TCR (MARK3 TRA chain and MARK3 TRB chain) (TCR, V domains shown)
Valpha: SQKIEQNSEALNIQEGKTATLTCNYTNYSPAYLQWYRQDPGRGPVFLLLIRENEKEKRKERLKVTFDTTLKQSLFHITASQPADSATYLCAPYTGGFKTIFGAGTRLFVKA
Vbeta: DTGVSQNPRHKITKRGQNVTFRCDPISEHNRLYWYRQTLGQGPEFLTYFQNEAQLEKSRLLSDRFSAERPKGSFSTLEIQRTEQGDSAMYLCASSSPRVGYGYTFGSGTRLTVV
binding result [7]: recognises

From US20230346940A1, “Method And System For Identifying And Validating Shared Candidate Antigens And Shared Antigen-Specific T Lymphocyte Pairs” (National University of Singapore, priority 2019, published 2023)
